Source: BindingDB's records for doi:10.1016/j.chembiol.2003.08.010 (Brigham and Women's Hospital, 2003)

Assays:
[1] = target: T1, Ubiquitin carboxyl-terminal hydrolase isozyme L1 (Mus musculus, UniProt Q9R0P9); assay: Inhibition Activity Assay; settings: pH 7.6; 25 °C
T1 sequence (Q9R0P9 whole entry): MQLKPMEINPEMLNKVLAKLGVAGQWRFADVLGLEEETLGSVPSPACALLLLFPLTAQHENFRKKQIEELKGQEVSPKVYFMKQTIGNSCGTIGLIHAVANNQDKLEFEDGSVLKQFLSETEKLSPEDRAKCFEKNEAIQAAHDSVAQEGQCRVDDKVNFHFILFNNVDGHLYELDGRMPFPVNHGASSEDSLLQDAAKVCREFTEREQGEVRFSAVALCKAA
Text: (§1) Inhibition activity and selectivity for UCH-L1 and UCH-L3.

[2] = target: T2, Ubiquitin carboxyl-terminal hydrolase isozyme L3 (Mus musculus, UniProt Q9JKB1); assay: Inhibition Activity Assay; settings: pH 7.6; 25 °C
T2 sequence (Q9JKB1 whole entry): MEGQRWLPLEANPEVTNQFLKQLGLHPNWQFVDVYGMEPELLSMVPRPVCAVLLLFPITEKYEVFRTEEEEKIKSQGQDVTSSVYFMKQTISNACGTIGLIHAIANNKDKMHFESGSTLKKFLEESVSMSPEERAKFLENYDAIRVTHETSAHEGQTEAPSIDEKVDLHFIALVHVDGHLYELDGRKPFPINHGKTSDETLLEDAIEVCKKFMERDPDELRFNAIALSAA
Text: as §1

Compound	IC50 [1]	IC50 [2]
COc1ccc(NC(=O)c2[nH]cnc2C(=O)N[C@@H](CC(C)C)C(=O)OC(C)(C)C)cc1 [(2S)-2-[[4-[(4-methoxyphenyl)carbamoyl]-1H-imidazole-5-carbonyl]amino]-4-methyl-valeric acid tert-butyl ester]	27 µM	48 µM
COc1ccc(N(CC(=O)NCCSCc2cccc(Cl)c2)S(C)(=O)=O)cc1Cl [N-[2-[(3-chlorobenzyl)thio]ethyl]-2-(3-chloro-N-mesyl-4-methoxy-anilino)acetamide]	1.3 µM	22 µM
Cc1ccc(NC(=O)c2[nH]cnc2C(=O)N[C@@H](CCCCNC(=O)OC(C)(C)C)C(=O)OC(C)(C)C)cc1 [(2S)-6-(tert-butoxycarbonylamino)-2-[[4-(p-tolylcarbamoyl)-1H-imidazole-5-carbonyl]amino]hexanoic acid tert-butyl ester]	6 µM	32 µM
CCC1=NN(C(=O)c2ccccc2O)C(O)(c2ccccc2)C1 (stereo not drawn) [(3-ethyl-5-hydroxy-5-phenyl-4H-pyrazol-1-yl)-(2-hydroxyphenyl)methanone]	3.4 µM	72 µM
COc1ccc(-n2c(C=Cc3ccc(O)c(OC)c3)nc3ccccc3c2=O)cc1 [SMR000516541]	12 µM	52 µM
CCOC(=O)C1=C(C)N=c2s/c(=C\c3ccc(O)c([N+](=O)[O-])c3)c(=O)n2C1c1ccccc1OC (stereo not drawn) [ethyl 2-[(4-hydroxy-3-nitrophenyl)methylidene]-5-(2-methoxyphenyl)-7-methyl-3-oxo-5H-[1,3]thiazolo[3,2-a]pyrimidine-6-carboxylate]	1.8 µM	40 µM
COc1ccc2nc(C3CCCCC3)nc(C3CCCCC3)c2c1 [2,4-Dicyclohexyl-6-methoxy-quinazoline]	126 µM	47 µM

Further molecules by falling IC50 [1], results first:

IC50 [1]	IC50 [2]	Compound
290 µM	71 µM	CC1=CC(=O)c2ccccc2C1=O [Vitamin K3]
51 µM	116 µM	COC(=O)[C@H]1[C@H](CCc2ccccc2)NC(=O)N(Cc2ccccc2)[C@@H]1C
12 µM	33 µM	Cc1cccc(NC(=O)c2nc[nH]c2C(=O)N[C@@H](CC(C)C)C(=O)OCc2ccccc2)c1 [benzyl (2S)-4-methyl-2-[[4-[(3-methylphenyl)carbamoyl]-1H-imidazole-5-carbonyl]amino]pentanoate]
4.1 µM	113 µM	Cc1ccc(-c2cc(-c3ccccc3)nc(N(C)N)n2)cc1 [1-methyl-1-[4-(4-methylphenyl)-6-phenylpyrimidin-2-yl]hydrazine]
2.6 µM	16 µM	Cc1nc(N=NC(C)c2ccc(Br)cc2)cc(N2CCCCC2)n1 (stereo not drawn) [N-[1-(4-bromophenyl)ethylideneamino]-2-methyl-6-piperidin-1-ylpyrimidin-4-amine]
1.2 µM	25 µM	Cc1cc(Cl)c2oc(C(=O)N3CCC(O)(c4ccccc4)CC3)c(C)c2c1 [1-[(7-chloro-3,5-dimethyl-1-benzofuran-2-yl)carbonyl]-4-phenylpiperidin-4-ol]
0.94 µM	23 µM	COc1ccccc1-c1cc(-c2ccccc2)nc(SCC(=O)O)c1C#N [2-[[3-cyano-4-(2-methoxyphenyl)-6-phenyl-2-pyridinyl]thio]acetic acid]
